# Data published in US20250302767A1, “TREATMENT OF CANCER AND AUTOIMMUNE DISORDERS USING NANO POLYMERS OF HISTONE DEACETYLASE INHIBITORS” (University of Virginia Patent Foundation, priority 2021, published 2025).
# How the values were obtained:
# [1] = tested on: BALB/c mice; experiment: Repeated dose toxicity study; type: in vivo
# From the text: FIGS. 14A and 14B. […] Depicted are the percentage of body weight changes as a percentage of starting weights with SEM (FIG. 14A; n=5 mice/group) and clinical score with SEM (FIG. 14B; n=5 mice/group).
# (§1) In vivo studies. For single dose toxicity study, five to seven-week old female BALB/c mice were chosen for the MTD study. Animals were randomly assigned to dose groups based on body weight. […] Mice were divided into two cohorts for Nano-romidepsin (NanoRomi) and free romidepsin. Each cohort was divided into sub-cohorts. Each sub cohort (n=5) received a single treatment of following doses: 1, 2, 3, 5, and 8 mg/kg body weight by intreaperitoneal (IP) and intravenous (IV) route of administration. NanoRomi was diluted under sterile conditions in phosphate buffered saline (PBS). Romidepsin was prepared in DMSO and then diluted with PBS under sterile condition. […] The mice were monitored for 7 days after the last treatment. For single dose and repeated dose toxicity study, we used two endpoints: weight loss and clinical score. Clinical signs were scored by observing activity, appearance (hair coat and eyes/nose), posture, and body condition with a maximum of 3 points going to each (0, normal; 1 slight deviation from normal; 2, moderate deviation from normal, 3, severe deviation from normal). Euthanasia criteria included weight loss either >20% weight loss or reached a clinical score >6.
# [2] = tested on: human CLL, PLL, T cell lymphoma, esophageal and pancreatic cancer and multiple myeloma cells; conditions: in vitro; cited from earlier work
# [3] = Single dose toxicity study (MTD); type: in vivo, mice; conditions: female, mouse, in vivo, BALB/c mice
# Description: as §1
# [4] = tested on: BALB/c mice; experiment: Single dose toxicity study (MTD); type: in vivo
# Description: as §1
# [5] = tested on: H9-dtomato-luciferase tumor; experiment: Efficacy study, xenograft bioluminescence imaging; type: in vivo, NOD.Cg-Prkdcscid Il2rgtm1Wjl/SzJ mice (human H9 xenografts); conditions: 2 mg/kg IP on days 1, 4, 8, 11; after day 17 of engraftment
# From the text: FIG. 15. Efficacy study using NanoRomidepsin PDLLA. […] In vivo, BLI images were acquired to determine the response after the romidepsin and NanoRomidepsin PDLLA treatment. All cohorts were imaged on days 7, 10, 14, and 17 days (arrows) after post-engraftment using Lago X Spectrum Imaging System before the administration of drugs. After acquisition of images, a mean BLI curve of human H9 xenografts was generated where the y axis represents total flux (photon/s) and x axis represents time (Days) function.
# [6] = tested on: acetylation of histone proteins H3 and H4 in HH cells; experiment: Acetylation of histone H3 and H4 (flow cytometry, Western blot); type: cell-based, human; conditions: increasing doses, 30 hours
# Description: Flow Cytometry. Cells were harvested after 30 hours of treatment, washed twice with PBS, fixed with 4% paraformaldehyde solution and permeabilized with 70% methanol before incubating with the relevant antibodies: HDAC1 Polyclonal Antibody (Proteintech), Rabbit anti-Acetyl Histone H3 K9/K14, and Rabbit Anti-Acetyl Histone H4 (Millipore). After 30 minutes incubation at room temperature cells are washed twice with PBS and FITC conjugated secondary Goat anti-rabbit antibodies (Thermofisher) were added. Cells were incubated on ice for 30 minutes and then washed in PBS. After the second wash, cells were resuspended in PBS with 4% FBS and ready for signal acquisition on a flow cytometer. Apoptosis in cell lines was assessed by the presence of cleaved Poly (ADP-ribose) polymerase-1 (PARP) using a flourochrome conjugated anti-cleaved PARP antibody (BD Biosciences). After staining the cells were acquired using an Attune Flow Cytometer and the data analyzed using FloJo analysis software. The Mean Fluorescence intensity (MFI) was indicative of the level of expression of each marker.
# Western Blots. […] Antibodies were detected with the corresponding horseradish peroxidase-linked secondary antibodies. […] Signal detection and imaging was captured and analyzed using a CHEMIDOC™ System (Bio-Rad) with signal quantification. […]
# [7] = tested on: NKL (Natural killer cell lymphoblastic leukemia/lymphoma); experiment: Cell viability assay ([…]-GLO); type: cell-based; conditions: Homo sapiens, 60 h, read-out: IC50 in nM at 60 Hours
# From the text: (§2) Cell lines. The T cell lymphoma cell lines HH and H9 (both Cutaneous T Cell Lymphomas; CTCL), SUP-T1 (T Cell Lymphoblastic Lymphoma) and FEPD and SUP-M2 (ALK-negative anaplastic large cell lymphoma; ALCL), were obtained from ATCC. NKL (Natural killer cell lymphoblastic leukemia/lymphoma) cell lines (Robertson et al., 1996) were also employed. The cutaneous melanoma cell line FM3-29 was obtained from DSMZ. The Large Granular Lymphocyte (LGL) leukemia cell line TL-1 was generated in the Loughran lab. All cells were grown at 37° C. and 5% CO2 in a humidified incubator. Cell lines were authenticated by short tandem repeat DNA profiling (Genetica DNA laboratories) and tested for mycoplasma contamination routinely using the MycoAlert PLUS detection kit (Lonza #LT07-710). Experiments were performed within 6 weeks of thawing. HH, H9, SUP-T1, FEPD and FM3-29 cells were cultured in RPMI-1640 (Corning, Glendale, AZ) with 10% FBS (Thermofisher Scientific, Waltham, MA). SUP-M2 cells were cultured in RPMI-1640 with 20% FBS. TL-1 cells were cultured in RPMI-1640 with 10% FBS and supplemented with 200 U/ml IL-2 (Miltenyi Biotec cat #130-097-743). NKL cells were cultured in RPMI-1640 with 10% FBS and supplemented with 100 U/ml IL-2.
# (§3) Cell Viability Assay. For cell viability, cell lines were plated at the appropriate cell densities (SUP-T1, HH, NKL and TL-1 at 100,000 cells/ml/well and H9, FEPD SUP-M2 and FM3-29 at 50,000 cells/ml/well) in a 48-well plate. […] Cells were harvested after 24, 60, and 96 hours of incubation at 37° C., 5% CO2 and assayed for cell viability, using […]-GLO® (Promega) luminescence reagent, by quantifying the amount of ATP present. After 15 minutes of adding […]-GLO® reagent at a 1:1 ratio, luminescence was read on a GLOMAX® Discover Microplate Reader (Promega). Luminescence was normalized to untreated control, which was defined as 100% viability.
# [8] = tested on: SUP-M2 (ALK-ALCL); experiment: Cell viability assay ([…]-GLO); type: cell-based; conditions: Homo sapiens, SUP-M2, 60 h, read-out: IC50 in nM at 60 Hours
# From the text: as §2, §3
smiles,measurement,setting,value
"C/C=C1\NC(=O)[C@H]2CSSCC/C=C/[C@H](CC(=O)N[C@H](C(C)C)C(=O)N2)OC(=O)[C@H](C(C)C)NC1=O [Romidepsin, (1S,4S,7Z,10S,16E,21R)-7-Ethylidene-4,21-diisopropyl-2-oxa-12,13-dithia-5,8,20,23-tetrazabicyclo[8.7.6]tricos-16-ene-3,6,9,19,22-pentone]",body weight change,"[1]; 3 mg/kg IP on days 1, 4, 8 and 11",severe body weight loss
same,deaths during the experimental period,"[1]; 2 and 3 mg/kg IP on days 1, 4, 8 and 11",1 mouse
same,concentrations at which anti-proliferative and pro-apoptotic activity was seen,[2],1 to 500 nM
same,MTD,[3]; intraperitoneal (IP),5 mg/kg
same,MTD,"[3]; intravenous (IV), highest dose tested 8 mg/kg",> 8 mg/kg
same,clinical score,[4]; after first 7 days of treatment,equivalent clinical score
same,dose at which mice reached humane endpoints,[4]; intraperitoneal (IP),8 mg/kg
same,tumor response (BLI) compared to the control and ghost nanoparticle group,[5],cytostatic effect
same,acetylation of H3 and H4 (flow cytometry),[6],concentration dependent increase in the acetylation of both H3 and H4
same,IC50,[7],0.7 nM
same,IC50,[8],1.6 nM
